Test results as given in the supplement of paper PMC13380429.

Assays:
Details in all cases: 72 h
Calu-3 [1] = test: relative viability EC50 (midpoint between 100% and the lowest measured viability); higher = less toxic
HepG2 [2] = test: as above
Caco-2 [3] = test: as above
U2OS [4] = test: drug sensitivity score (DSS) for viability; higher = more toxic; extreme values may be limits of the assay
Vero E6 [5] = test: as above
Calu-3 [6] = test: as above
HepG2 [7] = test: as above
Caco-2 [8] = test: as above
U2OS [9] = test: cell viability relative to DMSO; higher = less toxic
Vero E6 [10] = test: as above
Calu-3 [11] = test: as above
HepG2 [12] = test: as above
Caco-2 [13] = test: as above
U2OS [14] = test: relative viability EC50 (midpoint between 100% and the lowest measured viability); higher = less toxic
Vero E6 [15] = test: as above

Row | Compound | relative viability EC50 (Calu-3 [1]) | relative viability EC50 (HepG2 [2]) | relative viability EC50 (Caco-2 [3]) | drug sensitivity score (U2OS [4]) | drug sensitivity score (Vero E6 [5]) | drug sensitivity score (Calu-3 [6]) | drug sensitivity score (HepG2 [7]) | drug sensitivity score (Caco-2 [8]) | cell viability (U2OS [9]; 1 nM) | cell viability (U2OS [9]; 10 nM) | cell viability (U2OS [9]; 100 nM) | cell viability (U2OS [9]; 1000 nM) | cell viability (U2OS [9]; 10000 nM) | cell viability (Vero E6 [10]; 1 nM) | cell viability (Vero E6 [10]; 10 nM) | cell viability (Vero E6 [10]; 100 nM) | cell viability (Vero E6 [10]; 1000 nM) | cell viability (Vero E6 [10]; 10000 nM) | cell viability (Calu-3 [11]; 1 nM) | cell viability (Calu-3 [11]; 10 nM) | cell viability (Calu-3 [11]; 100 nM) | cell viability (Calu-3 [11]; 1000 nM) | cell viability (Calu-3 [11]; 10000 nM) | cell viability (HepG2 [12]; 1 nM) | cell viability (HepG2 [12]; 10 nM) | cell viability (HepG2 [12]; 100 nM) | cell viability (HepG2 [12]; 1000 nM) | cell viability (HepG2 [12]; 10000 nM) | cell viability (Caco-2 [13]; 1 nM) | cell viability (Caco-2 [13]; 10 nM) | cell viability (Caco-2 [13]; 100 nM) | cell viability (Caco-2 [13]; 1000 nM) | cell viability (Caco-2 [13]; 10000 nM) | relative viability EC50 (U2OS [14]) | relative viability EC50 (Vero E6 [15])
1 | Sc1ncnc2nc[nH]c12 [mercaptopurine] | > 10 µM | 1.23 µM | > 10 µM | 5.6 | 1.1 | 0 | 8.7 | 3.1 | 102% | 101% | 93.4% | 71% | 65.1% | 103% | 104% | 99.5% | 103% | 70.6% | 113% | 91% | 94.3% | 90.8% | 106% | 112% | 115% | 107% | 69.7% | 18.8% | 110% | 103% | 109% | 77% | 89.6% |  | 
2 | CCCCOc1ccc(CC/C=C2\SC(=O)N(CCN)C2=O)cc1 [K145] | > 10 µM | > 10 µM |  | 0 | 0 | 0 | 0.6 | 1.7 | 89.3% | 97.1% | 91.4% | 93.1% | 83.1% | 108% | 103% | 101% | 104% | 92% | 92.1% | 108% | 87.1% | 101% | 92.5% | 107% | 102% | 95% | 95.4% | 82.7% | 97.9% | 106% | 95.1% | 91.2% | 73.9% | > 10 µM | > 10 µM
3 | c1cc(-c2cnn3cc(-c4ccc(N5CCNCC5)cc4)cnc23)c2cccnc2c1 | 3.69 µM |  | 2.67 µM | 7.6 | 2.5 | 4.5 | 0.8 | 5.1 | 97.4% | 93.2% | 95.9% | 87.2% | 1.5% | 92.4% | 99% | 92.6% | 87.7% | 69.3% | 109% | 104% | 97.4% | 111% | 6.2% | 108% | 101% | 97.2% | 102% | 74.9% | 93.9% | 99.7% | 102% | 95.1% | 20.6% | 2.11 µM | 
4 | CC1Nc2ccc(Cl)cc2S(=O)(=O)N1 (centres undefined) [IDRA-21] | > 10 µM | > 10 µM | > 10 µM | 0 |  | 0 | 0 | 0 | 99.3% | 105% | 99.6% | 102% | 98.2% |  |  |  |  |  | 87.5% | 92.2% | 102% | 97.4% | 101% | 102% | 93.8% | 97.3% | 98.9% | 98% | 105% | 105% | 95% | 104% | 99% | > 10 µM | 
5 | CCCC(CCC)C(=O)NCC(N)=O [valrocemide] |  | > 10 µM | > 10 µM | 0 | 0 |  | 0 | 0 | 104% | 101% | 97.7% | 104% | 98.9% | 97.3% | 104% | 104% | 97.8% | 101% |  |  |  |  |  | 94.6% | 101% | 95.6% | 102% | 101% | 95.6% | 94.1% | 91.5% | 90.9% | 97.6% | > 10 µM | > 10 µM
6 | CCC(CC)[C@H](NC(C)=O)[C@@H]1[C@H](O)[C@@H](C(=O)O)C[C@H]1NC(=N)N [peramivir] | > 10 µM | > 10 µM | > 10 µM | 0 |  | 0 | 0 | 0 | 103% | 110% | 98.9% | 110% | 104% |  |  |  |  |  | 93.3% | 98.3% | 98.1% | 107% | 101% | 110% | 98.6% | 102% | 110% | 98.9% | 98.8% | 101% | 104% | 105% | 102% | > 10 µM | 
